Holding throughout (format): functional
For assay [1], the system named is Mus musculus. The assay is described as follows: Antimalarial activity was determined by Blood schizonticidal activity in mice (Mus musculus) infected with Plasmodium berghei NS at 7.5 (mg/kg x5) peroral dosage; Cured/treated = 8/8.
The subject of assay [2] is Mus musculus. Description: Antimalarial activity was determined by Blood schizonticidal activity in mice (Mus musculus) infected with Plasmodium berghei NS at 25 (mg/kgx5) peroral dosage; Cured/treated = 0/6.
Assay [3] has as its system Mus musculus. The assay is described as follows: Antimalarial activity was determined by Blood schizonticidal activity in mice (Mus musculus) infected with Plasmodium berghei K173 at 0.625 (mg/kg x5) subcutaneous dosage; Cured/treated = 14/19 on day 7.
In assay [4] the test system is Mus musculus. The assay is described as follows: Antimalarial activity was determined by Blood schizonticidal activity in mice (Mus musculus) infected with Plasmodium berghei K173 at 20 (mg/kg x5) peroral dosage; Cured/treated = 4/12 on day 7.
In assay [5] the test system is Mus musculus. The assay is described as follows: Antimalarial activity was determined by blood schizonticidal activity in mice (Mus musculus) infected with Plasmodium berghei K173 at 10 (mg/kgx5) peroral dosage; Cured/treated = 0/6 on day 7.
The test system of assay [6] is Mus musculus. The assay is described as follows: Antimalarial activity was determined by blood schizonticidal activity in mice (Mus musculus) infected with Plasmodium berghei NS at 5 (mg/kg x5) subcutaneous dosage; Cured/treated = 19/20 on day 7.
Assay [7] has as its system Mus musculus. The assay is described as follows: Antimalarial activity was determined by Blood schizonticidal activity in mice (Mus musculus) infected with Plasmodium berghei K173 at 25 (mg/kgx5) peroral dosage; Cured/treated = 10/12 on day 7.
Assay [8] relates to Mus musculus. The assay is described as follows: Antimalarial activity was determined by Blood schizonticidal activity in mice (Mus musculus) infected with Plasmodium berghei K173 at 1.25 (mg/kgx5) subcutaneous dosage; Cured/treated = 30/30 on day 7.
Assay [9] concerns Mus musculus. The assay is described as follows: Antimalarial activity was determined by Blood schizonticidal activity in mice (Mus musculus) infected with Plasmodium berghei NS at 2.5 (mg/kgx5) subcutaneous dosage; Cured/treated = 11/14.
Assay [10] relates to Mus musculus. The assay is described as follows: Antimalarial activity was determined by blood schizonticidal activity in mice (Mus musculus) infected with Plasmodium berghei K173 at 25 (mg/kgx5) peroral dosage; Cured/treated = 6/6 on day 7.
Assay [11] relates to Mus musculus. The assay is described as follows: Antimalarial activity was determined by Blood schizonticidal activity in mice (Mus musculus) infected with Plasmodium berghei K173 at 12.5 (mg/kg x5) peroral dosage; Cured/treated = 3/6 on day 7.
Assay [12] relates to Mus musculus. Description: Antimalarial activity was determined by blood schizonticidal activity in mice (Mus musculus) infected with Plasmodium berghei NS at 12.5 (mg/kg x5) peroral dosage; Cured/treated = 2/6.
For assay [13], the system named is Mus musculus. Description: Antimalarial activity was determined by Blood schizonticidal activity in mice (Mus musculus) infected with Plasmodium berghei NS at 25 (mg/kgx5) peroral dosage; Cured/treated = 6/6.
Assay [14] deals with Mus musculus. Description: Antimalarial activity was determined by Blood schizonticidal activity in mice (Mus musculus) infected with Plasmodium berghei NS at 2.5 (mg/kgx5) subcutaneous dosage; Cured/treated = 6/6.
Assay [15] relates to Mus musculus. The assay is described as follows: Antimalarial activity was determined by Blood schizonticidal activity in mice (Mus musculus) infected with Plasmodium berghei K173 at 0.625 (mg/kg x5) subcutaneous dosage; Cured/treated = 6/6 on day 7.
Assay [16] relates to Mus musculus. The assay is described as follows: Antimalarial activity was determined by blood schizonticidal activity in mice (Mus musculus) infected with Plasmodium berghei K173 at 10 (mg/kgx5) subcutaneous dosage; Cured/treated = 0/6 on day 7.
For assay [17], the system named is Mus musculus. Description: Antimalarial activity was determined by Blood schizonticidal activity in mice (Mus musculus) infected with Plasmodium berghei K173 at 25 (mg/kgx5) subcutaneous dosage; Cured/treated = 4/4.
Assay [18] concerns Mus musculus. The assay is described as follows: Antimalarial activity was determined by Blood schizonticidal activity in mice (Mus musculus) infected with Plasmodium berghei K173 at 2.5 (mg/kgx5) subcutaneous dosage; Cured/treated = 0/6 on day 7.
Assay [19] has as its system Mus musculus. Description: Antimalarial activity was determined by blood schizonticidal activity in mice (Mus musculus) infected with Plasmodium berghei K173 at 25 (mg/kgx5) peroral dosage; Cured/treated = 0/6.
For assay [20], the system named is Mus musculus. Description: Antimalarial activity was determined by Blood schizonticidal activity in mice (Mus musculus) infected with Plasmodium berghei NS at 5 (mg/kg x5) subcutaneous dosage; Cured/treated = 10/10.
The test system of assay [21] is Mus musculus. The assay is described as follows: Antimalarial activity was determined by blood schizonticidal activity in mice (Mus musculus) infected with Plasmodium berghei NS at 5 (mg/kg x5) subcutaneous dosage; Cured/treated = 16/18 on day 7.
The test system of assay [22] is Mus musculus. Description: Antimalarial activity was determined by Blood schizonticidal activity in mice (Mus musculus) infected with Plasmodium berghei K173 at 2.5 (mg/kgx5) subcutaneous dosage; Cured/treated = 36/36.
For assay [23], the system named is Mus musculus. The assay is described as follows: Antimalarial activity was determined by blood schizonticidal activity in mice (Mus musculus) infected with Plasmodium berghei K173 at 1.25 (mg/kgx5) subcutaneous dosage; Cured/treated = 23/35 on day 7.
In assay [24] the test system is Mus musculus. The assay is described as follows: Antimalarial activity was determined by Blood schizonticidal activity in mice (Mus musculus) infected with Plasmodium berghei K173 at 20 (mg/kg x5) peroral dosage; Cured/treated = 34/34.
The subject of assay [25] is Mus musculus. Description: Antimalarial activity was determined by blood schizonticidal activity in mice (Mus musculus) infected with Plasmodium berghei NS at 25 (mg/kgx5) peroral dosage; Cured/treated = 7/12 on day 7.
The subject of assay [26] is Mus musculus. The assay is described as follows: Antimalarial activity was determined by blood schizonticidal activity in mice (Mus musculus) infected with Plasmodium berghei K173 at 5 (mg/kg x5) subcutaneous dosage; Cured/treated = 4/6 on day 7.

Turning to `C[C@H]1[C@@H](OC[C@]2(C)OC3OC4(C)CCC5[C@@H](C)CCC2[C@]35OO4)O[C@@H]2OC3(C)CCC4[C@H](C)CC[C@@H]1[C@]42OO3` (single isomer, unassigned), the Cured/treated in the assay on Mus musculus [1] worked out at 8; with Mus musculus [2], 0; with Mus musculus [3], 14; with Mus musculus [4], 4; with Mus musculus [5], 0; with Mus musculus [6] it was 19. In addition, the Cured/treated turned out to be 10 in the assay with Mus musculus [7], 30 with Mus musculus [8] and 11 with Mus musculus [9].

Turning to `C[C@H]1[C@H](OC[C@]2(C)OC3OC4(C)CCC5[C@@H](C)CCC2[C@]35OO4)O[C@@H]2OC3(C)CCC4[C@H](C)CC[C@@H]1[C@]42OO3` (single isomer, unassigned), the Cured/treated in the assay with Mus musculus [10] was determined as 6; in the assay on Mus musculus [11], 3; in the assay with Mus musculus [12], 2; in the assay on Mus musculus [13], 6; in the assay on Mus musculus [14], 6; in the assay on Mus musculus [15] it was 6.

`C[C@@H]1CCC2[C@]34OOC(C)(CCC13)O[C@H]4O[C@]2(C)C=O` (single isomer, unassigned): the Cured/treated with Mus musculus [16] is given as 0; with Mus musculus [17] it was 4.

In the case of `C=CCOC[C@@]1(C)O[C@@H]2OC3(C)CCC4[C@H](C)CC[C@@H]1[C@]42OO3` (single isomer, unassigned), the figures for the Cured/treated with Mus musculus [18], with Mus musculus [19] and with Mus musculus [20] were 0, 0 and 10, respectively.

For `CCO[C@H]1O[C@@H]2O[C@@]3(C)CC[C@H]4[C@H](C)CC[C@@H]([C@H]1C)[C@@]24OO3` [ARTEMOTIL], the Cured/treated in the assay with Mus musculus [21] turned out to be 16; in the assay on Mus musculus [22], 36; in the assay with Mus musculus [23], 23; with Mus musculus [24], 34; in the assay with Mus musculus [25] it was 7.

Regarding `C[C@@H]1CC[C@@H]2[C@]34OO[C@@](C)(CCC13)O[C@H]4O[C@]2(C)C(=O)NCc1ccc(C(F)(F)F)cc1` (stereo partly specified), the Cured/treated with Mus musculus [26] amounted to 4.

The values above are taken from ChEMBL document CHEMBL1128380, “Antimalarial activity of novel ring-contracted artemisinin derivatives” (1995).
